Reference: ChEMBL document CHEMBL1142001, “Novel and orally bioavailable inducible nitric oxide synthase inhibitors: synthesis and evaluation of optically active 4,5-dialkyl-2-iminoselenazolidine derivatives” (Bioorg Med Chem Lett, 2005)

Tests used:
[1] = Area under the concentration time curve value of compound was determined in rats after oral dosage of 0.3 mg/kg; format: ADME, organism-based; parameters: dose 0.3 mg/kg, route oral; settings: rat, in vivo
Nitric oxide synthase 1 = Nitric oxide synthase 1 (Homo sapiens, UniProt P29475); test: Inhibitory concentration against neuronal […]
Sequence of Nitric oxide synthase 1 (P29475 whole entry): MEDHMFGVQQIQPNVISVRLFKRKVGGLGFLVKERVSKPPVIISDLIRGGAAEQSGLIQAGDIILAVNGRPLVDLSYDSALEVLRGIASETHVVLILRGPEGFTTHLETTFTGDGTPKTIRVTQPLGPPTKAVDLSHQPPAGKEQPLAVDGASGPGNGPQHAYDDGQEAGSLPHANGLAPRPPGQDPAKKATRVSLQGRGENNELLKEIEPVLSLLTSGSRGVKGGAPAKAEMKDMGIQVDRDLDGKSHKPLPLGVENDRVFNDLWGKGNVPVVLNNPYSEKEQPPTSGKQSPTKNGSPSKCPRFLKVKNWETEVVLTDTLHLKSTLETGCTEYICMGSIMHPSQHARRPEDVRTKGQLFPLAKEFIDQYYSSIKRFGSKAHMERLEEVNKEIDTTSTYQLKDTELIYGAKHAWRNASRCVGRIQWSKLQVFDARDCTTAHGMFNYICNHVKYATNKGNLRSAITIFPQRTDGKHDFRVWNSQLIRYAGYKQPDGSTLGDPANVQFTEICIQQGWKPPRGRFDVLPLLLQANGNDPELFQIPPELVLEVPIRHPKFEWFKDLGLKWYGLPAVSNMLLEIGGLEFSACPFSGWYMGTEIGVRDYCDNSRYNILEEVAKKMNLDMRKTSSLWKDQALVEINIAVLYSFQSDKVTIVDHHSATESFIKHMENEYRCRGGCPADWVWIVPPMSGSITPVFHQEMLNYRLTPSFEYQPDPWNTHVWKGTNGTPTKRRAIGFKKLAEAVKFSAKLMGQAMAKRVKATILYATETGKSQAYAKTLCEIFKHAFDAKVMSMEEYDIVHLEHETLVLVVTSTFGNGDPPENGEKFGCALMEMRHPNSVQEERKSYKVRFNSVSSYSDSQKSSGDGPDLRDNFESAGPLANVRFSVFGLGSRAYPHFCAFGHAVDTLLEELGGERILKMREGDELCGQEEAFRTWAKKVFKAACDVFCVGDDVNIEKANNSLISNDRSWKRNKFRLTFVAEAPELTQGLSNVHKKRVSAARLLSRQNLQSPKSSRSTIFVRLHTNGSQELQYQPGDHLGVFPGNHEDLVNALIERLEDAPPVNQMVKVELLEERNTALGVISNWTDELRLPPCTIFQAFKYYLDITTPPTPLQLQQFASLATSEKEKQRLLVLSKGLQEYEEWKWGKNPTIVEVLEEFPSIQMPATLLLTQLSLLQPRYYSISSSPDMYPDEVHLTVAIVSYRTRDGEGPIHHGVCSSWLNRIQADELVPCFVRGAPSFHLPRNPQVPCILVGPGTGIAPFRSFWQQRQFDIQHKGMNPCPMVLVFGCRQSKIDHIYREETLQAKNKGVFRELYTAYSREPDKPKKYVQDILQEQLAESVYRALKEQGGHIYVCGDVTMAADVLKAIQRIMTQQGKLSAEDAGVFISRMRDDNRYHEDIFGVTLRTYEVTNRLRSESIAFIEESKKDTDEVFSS

[2] = Half life value of compound (0.3 mg/kg) on oral administration to rats; format: ADME, organism-based; settings: rat, in vivo
[3] = Cmax of compound (0.3 mg/kg) on oral administration to rats; format: ADME, organism-based; parameters: dose 0.3 mg/kg, route oral; settings: rat, in vivo
[4] = Half life value of compound (0.3 mg/kg) on intravenous administration to […]; format: ADME, organism-based; settings: rat, in vivo
Mus musculus = test: Inhibitory dose (p.o.) tested against plasma nitrite/nitrate levels in LPS-treated mice; format: functional; settings: po, read-out: ID50 (the source's name)
[5] = Tmax of compound (0.3 mg/kg) on oral administration to rats; format: ADME, organism-based; settings: rat, in vivo
[6] = Clearance rate (0.3 mg/kg) on intravenous administration to rats; format: ADME, organism-based; settings: rat, in vivo
[7] = target: Nitric oxide synthase, inducible (Homo sapiens, UniProt P35228); test: Inhibitory concentration against inducible […]
Sequence of Nitric oxide synthase, inducible (P35228 whole entry): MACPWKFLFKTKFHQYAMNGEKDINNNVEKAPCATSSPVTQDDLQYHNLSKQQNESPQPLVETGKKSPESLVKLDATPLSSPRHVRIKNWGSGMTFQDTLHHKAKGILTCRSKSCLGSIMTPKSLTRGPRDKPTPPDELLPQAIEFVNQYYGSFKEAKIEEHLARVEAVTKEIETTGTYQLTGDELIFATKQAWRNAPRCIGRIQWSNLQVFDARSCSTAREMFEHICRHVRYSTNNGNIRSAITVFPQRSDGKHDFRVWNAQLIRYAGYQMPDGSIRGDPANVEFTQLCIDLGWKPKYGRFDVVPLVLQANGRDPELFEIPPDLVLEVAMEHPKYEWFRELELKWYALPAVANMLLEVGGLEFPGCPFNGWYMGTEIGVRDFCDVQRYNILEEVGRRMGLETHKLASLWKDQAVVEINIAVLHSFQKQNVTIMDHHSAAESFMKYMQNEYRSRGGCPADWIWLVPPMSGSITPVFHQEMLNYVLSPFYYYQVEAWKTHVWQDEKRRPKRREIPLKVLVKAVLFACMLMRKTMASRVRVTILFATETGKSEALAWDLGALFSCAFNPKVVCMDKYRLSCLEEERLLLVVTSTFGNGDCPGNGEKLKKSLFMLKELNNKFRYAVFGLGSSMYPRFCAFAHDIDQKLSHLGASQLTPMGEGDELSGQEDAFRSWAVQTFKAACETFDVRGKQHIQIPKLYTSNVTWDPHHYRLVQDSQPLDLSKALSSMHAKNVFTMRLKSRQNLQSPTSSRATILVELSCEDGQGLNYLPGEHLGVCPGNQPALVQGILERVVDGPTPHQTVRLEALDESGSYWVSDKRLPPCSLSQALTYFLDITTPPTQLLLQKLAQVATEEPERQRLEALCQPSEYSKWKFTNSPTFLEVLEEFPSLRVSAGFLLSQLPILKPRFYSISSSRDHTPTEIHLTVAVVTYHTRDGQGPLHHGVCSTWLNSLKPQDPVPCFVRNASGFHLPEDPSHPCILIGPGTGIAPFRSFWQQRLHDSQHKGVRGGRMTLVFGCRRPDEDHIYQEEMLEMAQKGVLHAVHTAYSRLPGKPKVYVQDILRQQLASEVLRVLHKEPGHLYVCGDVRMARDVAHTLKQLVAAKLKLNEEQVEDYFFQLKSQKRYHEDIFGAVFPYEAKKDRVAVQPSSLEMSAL

[8] = Area under concentration time curve value in rat was determined at a intravenous dosage of 0.3 mg/kg; format: ADME, organism-based; parameters: dose 0.3 mg/kg, route intravenous; settings: in vivo
[9] = Oral bioavailability of compound (0.3 mg/kg) on oral administration to rats; format: ADME, organism-based; settings: rat, in vivo, read-out: Bioavailabiility

SMILES	IC50 (Nitric oxide synthase 1) [nM]	IC50 [7] [nM]	other results
CC[C@H]1[Se]C(N)=N[C@@H]1C	790	9.3	AUC [1]: 45 ng·h/mL; half-life [2]: 72 min; Cmax [3]: 45 ng/mL; half-life [4]: 57 min; ED50 (Mus musculus): 0.3 mg/kg; Tmax [5]: 30 min; clearance [6]: 55.5 mL/min/kg; AUC [8]: 117 ng·h/mL; bioavailability [9]: 73%
CC[C@@H]1[Se]C(N)=N[C@H]1C	350	34	
CC[C@@H]1N=C(N)[Se][C@@H]1C	740	80	
CC[C@H]1N=C(N)[Se][C@H]1C	280	21	
CC[C@H]1[Se]C(N)=N[C@H]1C	6900	340	
CC[C@@H]1N=C(N)[Se][C@H]1C	280	21	
CC[C@H]1N=C(N)[Se][C@@H]1C	92	9.4	
CC[C@H]1SC(N)=N[C@@H]1C	380	6.6	
CC[C@@H]1[Se]C(N)=N[C@@H]1C	1300	66	
